The results in this text go back to patent publication US8912176B2 (Evotec AG, priority 2009, dated 2014).

For the test, the target named is human H3 receptor (Homo sapiens, UniProt Q9Y5N1). Description: cAMP quantification assay for human H3 receptor (DiscoveRx cAMP XS+).
human H3 receptor, sequence (Q9Y5N1 whole entry): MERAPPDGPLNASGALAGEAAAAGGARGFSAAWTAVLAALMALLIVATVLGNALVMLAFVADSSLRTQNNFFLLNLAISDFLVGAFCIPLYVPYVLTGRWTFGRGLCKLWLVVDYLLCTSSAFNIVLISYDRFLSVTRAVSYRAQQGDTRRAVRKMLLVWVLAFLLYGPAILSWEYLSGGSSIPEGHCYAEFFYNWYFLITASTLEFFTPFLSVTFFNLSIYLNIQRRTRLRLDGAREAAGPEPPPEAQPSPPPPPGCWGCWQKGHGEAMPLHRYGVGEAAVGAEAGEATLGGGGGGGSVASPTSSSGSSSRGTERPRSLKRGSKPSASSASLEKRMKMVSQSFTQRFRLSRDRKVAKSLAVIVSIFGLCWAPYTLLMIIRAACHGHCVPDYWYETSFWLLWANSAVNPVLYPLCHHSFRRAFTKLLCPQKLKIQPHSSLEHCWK

The IC50 is the midpoint of a concentration-inhibition curve. `COC1CCC(C(=O)N2CC(C(=O)N3CCCN(C4CCC4)CC3)C2)CC1` (mixture of isomers) [Example 28, 1-cyclobutyl-4-({1-[(4-methoxycyclohexyl)carbonyl]azetidin-3-yl}carbonyl)-1,4-diazepane]: the IC50 was below 50 nM.
For `O=C(OCc1ccccc1)N1CC(C(=O)N2CCCN(C3CCC3)CC2)C1` [Example 1, benzyl 3-[(4-cyclobutyl-1,4-diazepan-1-yl)carbonyl]azetidine-1-carboxylate], the IC50 was below 50 nM.
The molecule `O=C(C1CN(C(=O)N2CCCCC2)C1)N1CCCN(C2CCC2)CC1` [Example 2, 1-cyclobutyl-4-{[1-(piperidin-1-ylcarbonyl)azetidin-3-yl]carbonyl}-1,4-diazepane] showed an IC50 below 50 nM.
Under `O=C(C1CN(C(=O)N2CCOCC2)C1)N1CCCN(C2CCC2)CC1` [Example 3, 1-cyclobutyl-4-{[1-(morpholin-4-ylcarbonyl)azetidin-3-yl]carbonyl}-1,4-diazepane] stands below 50 nM; under `O=C(C1CN(C(=O)C2CCCCC2)C1)N1CCCN(C2CCC2)CC1` [Example 4, 1-cyclobutyl-4-{[1-(cyclohexylcarbonyl)azetidin-3-yl]carbonyl}-1,4-diazepane], below 50 nM; under `O=C(C1CN(C(=O)C2CCOCC2)C1)N1CCCN(C2CCC2)CC1` [Example 5, 1-cyclobutyl-4-{[1-(tetrahydro-2H-pyran-4-ylcarbonyl)azetidin-3-yl]carbonyl}-1,4-diazepane], below 50 nM.
To `N#Cc1ccc(C(=O)N2CC(C(=O)N3CCCN(C4CCC4)CC3)C2)cc1` [Example 6, 4-({3-[(4-cyclobutyl-1,4-diazepan-1-yl)carbonyl]azetidin-1-yl}carbonyl)benzonitrile] belongs below 50 nM.
Molecule `COC(=O)c1ccc(C(=O)N2CC(C(=O)N3CCCN(C4CCC4)CC3)C2)cn1` [Example 7, methyl 5-({3-[(4-cyclobutyl-1,4-diazepan-1-yl)carbonyl]azetidin-1-yl}carbonyl)pyridine-2-carboxylate] had an IC50 below 50 nM.
Under `Cc1ncc(C(=O)N2CC(C(=O)N3CCCN(C4CCC4)CC3)C2)cn1` [Example 8, 1-cyclobutyl-4-({1-[(2-methylpyrimidin-5-yl)carbonyl]azetidin-3-yl}carbonyl)-1,4-diazepane] stands below 50 nM; under `Cc1cnc(C(=O)N2CC(C(=O)N3CCCN(C4CCC4)CC3)C2)cn1` [Example 9, 1-cyclobutyl-4-({1-[(5-methylpyrazin-2-yl)carbonyl]azetidin-3-yl}carbonyl)-1,4-diazepane], below 50 nM; under `Cc1ccc(C(=O)N2CC(C(=O)N3CCCN(C4CCC4)CC3)C2)cn1` [Example 10, 1-cyclobutyl-4-({1-[(6-methylpyridin-3-yl)carbonyl]azetidin-3-yl}carbonyl)-1,4-diazepane], below 50 nM.
Under `O=C(c1ccc(OC2CCOCC2)cc1)N1CC(C(=O)N2CCCN(C3CCC3)CC2)C1` [Example 11, 1-cyclobutyl-4-[(1-{[4-(tetrahydro-2H-pyran-4-yloxy)phenyl]carbonyl}azetidin-3-yl)carbonyl]-1,4-diazepane] stands below 50 nM.
On to `O=C(c1ccc(-n2ccnc2)nc1)N1CC(C(=O)N2CCCN(C3CCC3)CC2)C1` [Example 12, 1-cyclobutyl-4-[(1-{[6-(1H-imidazol-1-yl)pyridin-3-yl]carbonyl}azetidin-3-yl)carbonyl]-1,4-diazepane], for which the IC50 is below 50 nM.
To `O=C(c1ccc(-n2cncn2)nc1)N1CC(C(=O)N2CCCN(C3CCC3)CC2)C1` [Example 13, 1-cyclobutyl-4-[(1-{[6-(1H-1,2,4-triazol-1-yl)pyridin-3-yl]carbonyl}azetidin-3-yl)carbonyl]-1,4-diazepane] belongs below 50 nM; to `O=C(c1ccc(-n2cccn2)nc1)N1CC(C(=O)N2CCCN(C3CCC3)CC2)C1` [Example 14, 1-cyclobutyl-4-[(1-{[6-(1H-pyrazol-1-yl)pyridin-3-yl]carbonyl}azetidin-3-yl)carbonyl]-1,4-diazepane], below 50 nM; to `O=C(Cn1cccn1)N1CC(C(=O)N2CCCN(C3CCC3)CC2)C1` [Example 15, 1-cyclobutyl-4-{[1-(1H-pyrazol-1-ylacetyl)azetidin-3-yl]carbonyl}-1,4-diazepane], below 50 nM.
In turn, `O=C(CN1CCCCC1)N1CC(C(=O)N2CCCN(C3CCC3)CC2)C1` [Example 16, 1-cyclobutyl-4-{[1-(piperidin-1-ylacetyl)azetidin-3-yl]carbonyl}-1,4-diazepane] gave a concentration for half-maximal inhibition (IC50) below 50 nM.
Under `O=C(CN1CCOCC1)N1CC(C(=O)N2CCCN(C3CCC3)CC2)C1` [Example 17, 1-cyclobutyl-4-{[1-(morpholin-4-ylacetyl)azetidin-3-yl]carbonyl}-1,4-diazepane] stands below 50 nM; under `O=C(CN1CCS(=O)(=O)CC1)N1CC(C(=O)N2CCCN(C3CCC3)CC2)C1` [Example 18, 1-cyclobutyl-4-({1-[(1,1-dioxidothiomorpholin-4-yl)acetyl]azetidin-3-yl}carbonyl)-1,4-diazepane], below 50 nM.
The molecule `O=C(CN1CCC(F)(F)C1)N1CC(C(=O)N2CCCN(C3CCC3)CC2)C1` [Example 19, 1-cyclobutyl-4-({1-[(3,3-difluoropyrrolidin-1-yl)acetyl]azetidin-3-yl}carbonyl)-1,4-diazepane] came in with an IC50 below 50 nM.
For the molecule `O=C(CN1CCC(F)(F)CC1)N1CC(C(=O)N2CCCN(C3CCC3)CC2)C1` [Example 20, 1-cyclobutyl-4-({1-[(4,4-difluoropiperidin-1-yl)acetyl]azetidin-3-yl}carbonyl)-1,4-diazepane], the IC50 is below 50 nM.
Take `Cc1ccc(OCC(=O)N2CC(C(=O)N3CCCN(C4CCC4)CC3)C2)cn1` [Example 21, 1-cyclobutyl-4-[(1-{[(6-methylpyridin-3-yl)oxy]acetyl}azetidin-3-yl)carbonyl]-1,4-diazepane]: the IC50 is below 50 nM.
`N#Cc1ccc(OCC(=O)N2CC(C(=O)N3CCCN(C4CCC4)CC3)C2)cc1` [Example 22, 4-(2-{3-[(4-cyclobutyl-1,4-diazepan-1-yl)carbonyl]azetidin-1-yl}-2-oxoethoxy)benzonitrile]: the IC50 was below 50 nM.
To `COc1ccc(S(=O)(=O)N2CC(C(=O)N3CCCN(C4CCC4)CC3)C2)cc1` [Example 23, 1-cyclobutyl-4-({1-[(4-methoxyphenyl)sulfonyl]azetidin-3-yl}carbonyl)-1,4-diazepane] belongs 50 to 100 nM; to `O=C(C1CN(S(=O)(=O)C2CCCCC2)C1)N1CCCN(C2CCC2)CC1` [Example 24, 1-cyclobutyl-4-{[1-(cyclohexylsulfonyl)azetidin-3-yl]carbonyl}-1,4-diazepane], below 50 nM; to `O=C(C1CN(S(=O)(=O)CC2CCCC2)C1)N1CCCN(C2CCC2)CC1` [Example 25, 1-cyclobutyl-4-({1-[(cyclopentylmethyl)sulfonyl]azetidin-3-yl}carbonyl)-1,4-diazepane], below 50 nM.
`O=C(C1CN(S(=O)(=O)c2ccccc2)C1)N1CCCN(C2CCC2)CC1` [Example 26, 1-cyclobutyl-4-{[1-(phenylsulfonyl)azetidin-3-yl]carbonyl}-1,4-diazepane] gave an IC50 below 50 nM.
To `N#Cc1ccc(S(=O)(=O)N2CC(C(=O)N3CCCN(C4CCC4)CC3)C2)cc1` [Example 27, 4-({3-[(4-cyclobutyl-1,4-diazepan-1-yl)carbonyl]azetidin-1-yl}sulfonyl)benzonitrile] belongs below 50 nM; to `O=C(C1CN(C(=O)C2CCC(F)(F)CC2)C1)N1CCCN(C2CCC2)CC1` [Example 29, 1-cyclobutyl-4-({1-[(4,4-difluorocyclohexyl)carbonyl]azetidin-3-yl}carbonyl)-1,4-diazepane], below 50 nM.
Turning to `Cc1cc(C)n(-c2ccc(C(=O)N3CC(C(=O)N4CCCN(C5CCC5)CC4)C3)cc2)n1` [Example 30, 1-cyclobutyl-4-[(1-{[4-(3,5-dimethyl-1H-pyrazol-1-yl)phenyl]carbonyl}azetidin-3-yl)carbonyl]-1,4-diazepane], the IC50 is below 50 nM.
With `Cc1nnc(-c2ccc(C(=O)N3CC(C(=O)N4CCCN(C5CCC5)CC4)C3)cc2)o1` [Example 31, 1-cyclobutyl-4-[(1-{[4-(5-methyl-1,3,4-oxadiazol-2-yl)phenyl]carbonyl}azetidin-3-yl)carbonyl]-1,4-diazepane], the IC50 is below 50 nM.
For `O=C(CC1CC1)N1CC(C(=O)N2CCCN(C3CCC3)CC2)C1` [Example 32, 1-cyclobutyl-4-{[1-(cyclopropylacetyl)azetidin-3-yl]carbonyl}-1,4-diazepane], the IC50 was below 50 nM.
`O=C(CC1CCCCC1)N1CC(C(=O)N2CCCN(C3CCC3)CC2)C1` [Example 33, 1-cyclobutyl-4-{[1-(cyclohexylacetyl)azetidin-3-yl]carbonyl}-1,4-diazepane] returned an IC50 below 50 nM.
Molecule `N#Cc1ccc(CC(=O)N2CC(C(=O)N3CCCN(C4CCC4)CC3)C2)cc1` [Example 34, 4-(2-{3-[(4-cyclobutyl-1,4-diazepan-1-yl)carbonyl]azetidin-1-yl}-2-oxoethyl)benzonitrile] returned an IC50 below 50 nM.
To `O=C(c1ccc(-c2nccs2)cc1)N1CC(C(=O)N2CCCN(C3CCC3)CC2)C1` [Example 35, 1-cyclobutyl-4-[(1-{[4-(1,3-thiazol-2-yl)phenyl]carbonyl}azetidin-3-yl)carbonyl]-1,4-diazepane] belongs below 50 nM; to `Cc1nc(-c2ccc(C(=O)N3CC(C(=O)N4CCCN(C5CCC5)CC4)C3)cc2)cs1` [Example 36, 1-cyclobutyl-4-[(1-{[4-(2-methyl-1,3-thiazol-4-yl)phenyl]carbonyl}azetidin-3-yl)carbonyl]-1,4-diazepane], below 50 nM.
`Cc1nc(-c2ccc(C(=O)N3CC(C(=O)N4CCCN(C5CCC5)CC4)C3)cc2)no1` [Example 37, 1-cyclobutyl-4-[(1-{[4-(5-methyl-1,2,4-oxadiazol-3-yl)phenyl]carbonyl}azetidin-3-yl)carbonyl]-1,4-diazepane] gave an IC50 below 50 nM.
Molecule `CC(C)c1ccc(C(=O)N2CC(C(=O)N3CCCN(C4CCC4)CC3)C2)cc1` [Example 38, 1-cyclobutyl-4-[(1-{[4-(1-methylethyl)phenyl]carbonyl}azetidin-3-yl)carbonyl]-1,4-diazepane] had an IC50 below 50 nM.
